Legend:
bedstraw = assay: Test B pre/postemergence bedstraw; format: in vivo, Galium aparine
In short: (§1)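 Herbicidal effect was estimated by eye on a ten-point control scale after plants spent twelve to sixteen days in a greenhouse following soil or foliar treatment. Foliar sprays targeted plants at one to four leaves; all doses were formulated in a non-phytotoxic solvent with surfactant.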

blackgrass = assay: Test B pre/postemergence blackgrass; format: in vivo, Alopecurus myosuroides
In short: as §1

surinam grass = assay: Test B pre/postemergence surinam grass; format: in vivo, Brachiaria decumbens
In short: as §1

cocklebur = assay: Test B pre/postemergence cocklebur; format: in vivo, Xanthium strumarium
In short: as §1

corn = assay: Test B pre/postemergence corn; format: in vivo, Zea mays
In short: as §1

crabgrass = assay: Test B pre/postemergence crabgrass; format: in vivo, Digitaria sanguinalis
In short: as §1

giant foxtail = assay: Test B pre/postemergence giant foxtail; format: in vivo, Setaria faberii
In short: as §1

morningglory = assay: Test B pre/postemergence morningglory; format: in vivo, Ipomoea hederacea
In short: as §1

pigweed = assay: Test B pre/postemergence pigweed; format: in vivo, Amaranthus retroflexus
In short: as §1

rape = assay: Test B pre/postemergence rape; format: in vivo, Brassica napus
In short: as §1

soybean = assay: Test B pre/postemergence soybean; format: in vivo, Glycine max
In short: as §1

sugar beet = assay: Test B pre/postemergence sugar beet; format: in vivo, Beta vulgaris
In short: as §1

velvetleaf = assay: Test B pre/postemergence velvetleaf; format: in vivo, Abutilon theophrasti
In short: as §1

wheat = assay: Test B pre/postemergence wheat; format: in vivo, Triticum aestivum
In short: as §1

wild oat = assay: Test B pre/postemergence wild oat; format: in vivo, Avena fatua
In short: as §1

purple nutsedge = assay: Test B pre/postemergence purple nutsedge; format: in vivo, Cyperus rotundus; settings: Preemergence
In short: as §1

smallflower flatsedge = assay: Test B flood test smallflower flatsedge; format: in vivo, Cyperus difformis
In short: (§2)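 Flood test on plants grown to the 2-leaf stage; treated plants kept in greenhouse twelve to sixteen days, then visually rated against controls on a 0 (no effect) to 10 (complete control) scale.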

duck salad = assay: Test B flood test duck salad; format: in vivo, Heteranthera limosa
In short: as §2

bamyardgrass = assay: Test B flood test barnyardgrass; format: in vivo, Echinochloa crus-galli
In short: as §2

rice = assay: Test B flood test rice; format: in vivo, Oryza sativa
In short: as §2

[1] = Postemergence, Rate 62 g/ha, scale of 0 to 10, 0 is no effect, 10 is complete control
[2] = Postemergence, Rate 125 g/ha, scale 0 to 10, 0 is no effect, 10 is complete control
[3] = Postemergence, Rate 500 g/ha, scale 0 to 10, 0 is no effect, 10 is complete control
[4] = Preemergence, Rate 62 g/ha, scale 0 to 10 (0 no effect, 10 complete control)
[5] = Rate 250 g/ha, Postemergence, scale of 0 to 10 where 0 is no effect and 10 is complete control
[6] = Preemergence, Rate 125 g/ha, scale 0 to 10, 0 is no effect, 10 is complete control
[7] = Preemergence, Rate 500 g/ha, scale of 0 to 10 where 0 is no effect and 10 is complete control
[8] = Rate 62 g/ha, flood test species, Pre-emergence, visual evaluation after twelve to sixteen days
[9] = Rate 125 g/ha, under heading Pre-emergence, flood test species, visual evaluation after twelve to sixteen days
[10] = Rate 250 g/ha, Pre-emergence (flood test species), scale 0 to 10, 0 is no effect, 10 is complete control
[11] = Rate 500 g/ha, Pre-emergence section of Table B, 0 to 10 scale (0 no effect, 10 complete control)
[12] = Pre-emergence, Rate 62 g/ha, scale 0 to 10, 0 is no effect, 10 is complete control
[13] = Rate 125 g/ha, Pre-emergence section (flood test species), scale 0 to 10, 0 no effect, 10 complete control

C=CCCCn1c(=O)on(C(=O)N(c2ccc(Cl)cc2)C(C)C)c1=O [Compound 546]
Bedstraw plant response rating (bedstraw; [1]): 0
Bedstraw plant response rating (bedstraw; [2]): 9
Plant response rating, Bedstraw (bedstraw; [3]): 9
Bedstraw plant response rating (bedstraw; [4]): 0
Bedstraw plant response rating (0 to 10 scale) (bedstraw; Preemergence, Rate 250 g/ha): 8
Plant response rating, Bedstraw (bedstraw; [5]): 9
Blackgrass plant response rating (blackgrass; [1]): 0
Blackgrass plant response rating (blackgrass; [2]): 0
Plant response rating, Blackgrass (blackgrass; [3]): 6
Blackgrass plant response rating (blackgrass; [4]): 0
Blackgrass plant response rating (blackgrass; [6]): 0
Blackgrass plant response rating (0 to 10 scale) (blackgrass; Preemergence, Rate 250 g/ha): 0
Blackgrass plant response rating (blackgrass; [7]): 3
Plant response rating, Blackgrass (blackgrass; [5]): 3
B. signalgrass plant response rating (surinam grass; [1]): 0
B. signalgrass plant response rating (surinam grass; [2]): 0
Plant response rating, B. signalgrass (surinam grass; [3]): 0
B. signalgrass plant response rating (surinam grass; [4]): 0
B. signalgrass plant response rating (0 to 10 scale, 0 is no effect, 10 is complete control) (surinam grass; Preemergence, Rate 250 g/ha): 0
B. signalgrass plant response rating (surinam grass; [7]): 2
Plant response rating, B. signalgrass (surinam grass; [5]): 0
Cocklebur plant response rating (cocklebur; [1]): 0
Cocklebur plant response rating (cocklebur; [2]): 0
Plant response rating, Cocklebur (cocklebur; [3]): 0
Cocklebur plant response rating (cocklebur; [4]): 0
Cocklebur plant response rating (cocklebur; [6]): 0
Cocklebur plant response rating (0 to 10 scale) (cocklebur; Preemergence, Rate 250 g/ha): 0
Cocklebur plant response rating (cocklebur; [7]): 0
Plant response rating, Cocklebur (cocklebur; [5]): 0
Corn plant response rating (corn; [1]): 0
Corn plant response rating (corn; [2]): 0
Plant response rating, Corn (corn; [3]): 0
Corn plant response rating (corn; [4]): 0
Corn plant response rating (corn; [6]): 0
Corn plant response rating (0 to 10 scale) (corn; Preemergence, Rate 250 g/ha): 0
Corn plant response rating (corn; [7]): 0
Plant response rating, Corn (corn; [5]): 0
Crabgrass plant response rating (crabgrass; [1]): 1
Crabgrass plant response rating (crabgrass; [2]): 7
Plant response rating, Crabgrass (crabgrass; [3]): 10
Crabgrass plant response rating (crabgrass; [4]): 7
Crabgrass plant response rating (crabgrass; [6]): 7
Crabgrass plant response rating (0 to 10 scale) (crabgrass; Preemergence, Rate 250 g/ha): 10
Crabgrass plant response rating (crabgrass; [7]): 10
Plant response rating, Crabgrass (crabgrass; [5]): 7
Giant foxtail plant response rating (giant foxtail; [1]): 0
Plant response rating, Giant foxtail (giant foxtail; [3]): 7
Giant foxtail plant response rating (giant foxtail; [6]): 4
Giant foxtail plant response rating (0 to 10 scale) (giant foxtail; Preemergence, Rate 250 g/ha): 10
Giant foxtail plant response rating (giant foxtail; [7]): 10
Plant response rating, Giant foxtail (giant foxtail; [5]): 4
Morningglory plant response rating (morningglory; [1]): 0
Morningglory plant response rating (morningglory; [2]): 4
Plant response rating, Morningglory (morningglory; [3]): 10
Morningglory plant response rating (morningglory; [4]): 0
Morningglory plant response rating (morningglory; [6]): 0
Morningglory plant response rating (0 to 10 scale) (morningglory; Preemergence, Rate 250 g/ha): 0
Morningglory plant response rating (morningglory; [7]): 0
Plant response rating, Morningglory (morningglory; [5]): 5
Redroot pigweed plant response rating (pigweed; [1]): 0
Plant response rating, Redroot pigweed (pigweed; [3]): 3
Redroot pigweed plant response rating (pigweed; [6]): 3
Redroot pigweed plant response rating (0 to 10 scale) (pigweed; Preemergence, Rate 250 g/ha): 10
Plant response rating, Redroot pigweed (pigweed; [5]): 0
Rape plant response rating (rape; [1]): 0
Rape plant response rating (rape; [2]): 0
Plant response rating, Rape (rape; [3]): 7
Rape plant response rating (rape; [4]): 0
Rape plant response rating (rape; [6]): 0
Rape plant response rating (0 to 10 scale) (rape; Preemergence, Rate 250 g/ha): 0
Rape plant response rating (rape; [7]): 0
Plant response rating, Rape (rape; [5]): 7
Soybean plant response rating (soybean; [1]): 1
Soybean plant response rating (soybean; [2]): 1
Plant response rating, Soybean (soybean; [3]): 4
Soybean plant response rating (soybean; [4]): 0
Soybean plant response rating (soybean; [6]): 0
Soybean plant response rating (0 to 10 scale) (soybean; Preemergence, Rate 250 g/ha): 0
Soybean plant response rating (soybean; [7]): 0
Plant response rating, Soybean (soybean; [5]): 2
Sugarbeets plant response rating (sugar beet; [1]): 0
Sugarbeets plant response rating (sugar beet; [2]): 0
Plant response rating, Sugarbeets (sugar beet; [3]): 5
Sugarbeets plant response rating (sugar beet; [4]): 0
Sugarbeets plant response rating (sugar beet; [6]): 0
Sugarbeets plant response rating (0 to 10 scale) (sugar beet; Preemergence, Rate 250 g/ha): 2
Sugarbeets plant response rating (sugar beet; [7]): 2
Plant response rating, Sugarbeets (sugar beet; [5]): 4
Velvetleaf plant response rating (velvetleaf; [1]): 0
Velvetleaf plant response rating (velvetleaf; [2]): 0
Plant response rating, Velvetleaf (velvetleaf; [3]): 2
Velvetleaf plant response rating (velvetleaf; [4]): 0
Velvetleaf plant response rating (velvetleaf; [6]): 0
Velvetleaf plant response rating (0 to 10 scale) (velvetleaf; Preemergence, Rate 250 g/ha): 0
Velvetleaf plant response rating (velvetleaf; [7]): 2
Wheat plant response rating (wheat; [1]): 0
Wheat plant response rating (wheat; [2]): 0
Plant response rating, Wheat (wheat; [3]): 0
Wheat plant response rating (wheat; [4]): 0
Wheat plant response rating (wheat; [6]): 0
Wheat plant response rating (0 to 10 scale) (wheat; Preemergence, Rate 250 g/ha): 0
Wheat plant response rating (wheat; [7]): 0
Plant response rating, Wheat (wheat; [5]): 0
Wild oats plant response rating (wild oat; [1]): 0
Wild oats plant response rating (wild oat; [2]): 0
Plant response rating, Wild oats (wild oat; [3]): 2
Wild oats plant response rating (wild oat; [4]): 0
Wild oats plant response rating (wild oat; [6]): 0
Wild oats plant response rating (0 to 10 scale) (wild oat; Preemergence, Rate 250 g/ha): 0
Wild oats plant response rating (wild oat; [7]): 3
Plant response rating, Wild oats (wild oat; [5]): 0
Nutsedge plant response rating (purple nutsedge; Rate 62 g/ha, scale 0 to 10 (0 no effect, 10 complete control)): 0
Nutsedge plant response rating (purple nutsedge; Rate 125 g/ha, scale 0 to 10, 0 is no effect, 10 is complete control): 0
Nutsedge plant response rating (0 to 10 scale) (purple nutsedge; Rate 250 g/ha): 0
Nutsedge plant response rating (purple nutsedge; Rate 500 g/ha, scale of 0 to 10 where 0 is no effect and 10 is complete control): 0
Plant response rating, S. Flatsedge (0 to 10 scale, 0 is no effect, 10 is complete control) (smallflower flatsedge; [8]): 0
S. Flatsedge plant response rating (0 to 10 scale, 0 is no effect, 10 is complete control) (smallflower flatsedge; [9]): 0
S. Flatsedge plant response rating (smallflower flatsedge; [10]): 0
S. Flatsedge plant response rating (smallflower flatsedge; [11]): 0
Plant response rating, Ducksalad (0 to 10 scale, 0 is no effect, 10 is complete control) (duck salad; [8]): 0
Ducksalad plant response rating (0 to 10 scale, 0 is no effect, 10 is complete control) (duck salad; [9]): 0
Ducksalad plant response rating (duck salad; [10]): 0
Ducksalad plant response rating (duck salad; [11]): 0
Plant response rating, Barnyardgrass (0 to 10 scale, 0 is no effect, 10 is complete control) (bamyardgrass; [8]): 0
Barnyardgrass plant response rating (0 to 10 scale, 0 is no effect, 10 is complete control) (bamyardgrass; [9]): 0
Barnyardgrass plant response rating (bamyardgrass; [10]): 0
Barnyardgrass plant response rating (bamyardgrass; [11]): 0

CC(C)N(C(=O)n1oc(=O)n(C2CC=CCC2)c1=O)c1ccc(F)cc1 (stereo not shown) [Compound 793]
Rice plant response rating (rice; [12]): 0
Rice plant response rating (rice; [13]): 0
Rice plant response rating (rice; [11]): 0
S. Flatsedge plant response rating (smallflower flatsedge; [12]): 6
S. Flatsedge plant response rating (smallflower flatsedge; [13]): 7
S. Flatsedge plant response rating (smallflower flatsedge; [11]): 8
Ducksalad plant response rating (duck salad; [12]): 6
Ducksalad plant response rating (duck salad; [13]): 7
Ducksalad plant response rating (duck salad; [11]): 8
Barnyardgrass plant response rating (bamyardgrass; [12]): 0
Barnyardgrass plant response rating (bamyardgrass; [13]): 0
Barnyardgrass plant response rating (bamyardgrass; [11]): 0
